The nature of data set [1]: toxicity in the rat (LD50, oral). The conditions noted are these: in vivo.
The nature of data set [2]: in vivo. To be noted: rat, po.
Data set [3] can be described thus: water solubility. The class given is physicochemical.

This is an account of results in patent US4978673A, “Organic salts of physostigmine derivatives” (priority 1987, dated 1990).

As usually defined, the LD50 is the dose at which mortality reaches 50%. Read a low LD50 as a more toxic substance. The solubility is how much of the substance goes into solution per volume. Low readings indicate a poorly soluble substance, high ones a readily soluble substance.

≈ marks a conversion by molar mass, not a printed value.

`CCCCCCCCCNC(=O)Oc1ccc2c(c1)C1(C)CCN(C)C1N2C` (centres unmarked) [***] returned an LD50 in data set [1] of 50 mg/kg.

On to `CCCCNC(=O)Oc1ccc2c(c1)C1(C)CCN(C)C1N2C` (centres unmarked) [**], for which, in data set [1], the LD50 was found to be 6 mg/kg. In the case of `CCCCCCCNC(=O)Oc1ccc2c(c1)C1(C)CCN(C)C1N2C` (centres unmarked) [*], the LD50 in data set [2] was determined as 20 mg/kg. `CCCCCCCNC(=O)Oc1ccc2c(c1)C1(C)CCN(C)C1N2C` (centres unmarked) [Example 1] yielded a solubility in data set [3] (water) of 700 mg/mL (≈ 1950 mM). In the case of `CCCCCCCNC(=O)Oc1ccc2c(c1)C1(C)CCN(C)C1N2C` (centres unmarked) [corresponding non-salified derivative], the “water solubility (in words)” value in data set [3] (non-salified derivative) was “insoluble”.
